Data from ChEMBL document CHEMBL3112480, “γ-Alkylidene-γ-lactones and isobutylpyrrol-2(5H)-ones analogues to rubrolides as inhibitors of biofilm formation by gram-positive and gram-negative bacteria” (Bioorg Med Chem Lett, 2014).
In brackets after ≈: the same amount, converted by molar mass.

Tests used:
[1] = test system: Streptococcus mutans; assay: Antibacterial activity against Streptococcus mutans ATCC 25175 assessed as effect on planktonic growth at 21.9 ug/ml after 20 hrs relative to control; assay type: functional
[2] = test system: Streptococcus mutans; assay: Antibacterial activity against Streptococcus mutans ATCC 25175 assessed as effect on planktonic growth at 43.8 ug/ml after 20 hrs relative to control; assay type: functional
[3] = test system: Streptococcus mutans; assay: Antibacterial activity against Streptococcus mutans ATCC 25175 assessed as effect on planktonic growth at 87.5 ug/ml after 20 hrs relative to control; assay type: functional
[4] = test system: Staphylococcus aureus; assay: Antibacterial activity against Staphylococcus aureus ATCC 25923 assessed as effect on planktonic growth at 0.17 ug/ml after 20 hrs relative to control; assay type: functional
[5] = test system: Staphylococcus aureus; assay: Antibacterial activity against Staphylococcus aureus ATCC 25923 assessed as effect on planktonic growth at 0.34 ug/ml after 20 hrs relative to control; assay type: functional
[6] = test system: Staphylococcus aureus; assay: Antibacterial activity against Staphylococcus aureus ATCC 25923 assessed as effect on planktonic growth at 0.68 ug/ml after 20 hrs relative to control; assay type: functional
[7] = test system: Staphylococcus aureus; assay: Antibacterial activity against Staphylococcus aureus ATCC 25923 assessed as effect on planktonic growth at 1.37 ug/ml after 20 hrs relative to control; assay type: functional
[8] = test system: Staphylococcus aureus; assay: Antibacterial activity against Staphylococcus aureus ATCC 25923 assessed as effect on planktonic growth at 5.5 ug/ml after 20 hrs relative to control; assay type: functional
[9] = test system: Staphylococcus aureus; assay: Antibacterial activity against Staphylococcus aureus ATCC 25923 assessed as effect on planktonic growth at 2.73 ug/ml after 20 hrs relative to control; assay type: functional
[10] = test system: Staphylococcus aureus; assay: Antibacterial activity against Staphylococcus aureus ATCC 25923 assessed as effect on planktonic growth at 10.9 ug/ml after 20 hrs relative to control; assay type: functional
[11] = test system: Staphylococcus aureus; assay: Antibacterial activity against Staphylococcus aureus ATCC 25923 assessed as effect on planktonic growth at 21.9 ug/ml after 20 hrs relative to control; assay type: functional
[12] = test system: Staphylococcus aureus; assay: Antibacterial activity against Staphylococcus aureus ATCC 25923 assessed as effect on planktonic growth at 43.8 ug/ml after 20 hrs relative to control; assay type: functional
[13] = test system: Staphylococcus aureus; assay: Antibacterial activity against Staphylococcus aureus ATCC 25923 assessed as effect on planktonic growth at 87.5 ug/ml after 20 hrs relative to control; assay type: functional
[14] = test system: Pseudomonas aeruginosa; assay: Antibacterial activity against Pseudomonas aeruginosa ATCC 27853 assessed as effect on planktonic growth at 0.17 ug/ml after 20 hrs relative to control; assay type: functional
[15] = test system: Pseudomonas aeruginosa; assay: Antibacterial activity against Pseudomonas aeruginosa ATCC 27853 assessed as effect on planktonic growth at 0.34 ug/ml after 20 hrs relative to control; assay type: functional
[16] = test system: Pseudomonas aeruginosa; assay: Antibacterial activity against Pseudomonas aeruginosa ATCC 27853 assessed as effect on planktonic growth at 0.68 ug/ml after 20 hrs relative to control; assay type: functional
[17] = test system: Pseudomonas aeruginosa; assay: Antibacterial activity against Pseudomonas aeruginosa ATCC 27853 assessed as effect on planktonic growth at 1.37 ug/ml after 20 hrs relative to control; assay type: functional
[18] = test system: Pseudomonas aeruginosa; assay: Antibacterial activity against Pseudomonas aeruginosa ATCC 27853 assessed as effect on planktonic growth at 2.73 ug/ml after 20 hrs relative to control; assay type: functional
[19] = test system: Pseudomonas aeruginosa; assay: Antibacterial activity against Pseudomonas aeruginosa ATCC 27853 assessed as effect on planktonic growth at 5.5 ug/ml after 20 hrs relative to control; assay type: functional
[20] = test system: Pseudomonas aeruginosa; assay: Antibacterial activity against Pseudomonas aeruginosa ATCC 27853 assessed as effect on planktonic growth at 10.9 ug/ml after 20 hrs relative to control; assay type: functional
[21] = test system: Pseudomonas aeruginosa; assay: Antibacterial activity against Pseudomonas aeruginosa ATCC 27853 assessed as effect on planktonic growth at 21.9 ug/ml after 20 hrs relative to control; assay type: functional
[22] = test system: Pseudomonas aeruginosa; assay: Antibacterial activity against Pseudomonas aeruginosa ATCC 27853 assessed as effect on planktonic growth at 43.8 ug/ml after 20 hrs relative to control; assay type: functional
[23] = test system: Pseudomonas aeruginosa; assay: Antibacterial activity against Pseudomonas aeruginosa ATCC 27853 assessed as effect on planktonic growth at 87.5 ug/ml after 20 hrs relative to control; assay type: functional
[24] = test system: Staphylococcus epidermidis; assay: Antibacterial activity against Staphylococcus epidermidis ATCC 35547 assessed as effect on planktonic growth at 0.17 ug/ml after 20 hrs relative to control; assay type: functional
[25] = test system: Staphylococcus epidermidis; assay: Antibacterial activity against Staphylococcus epidermidis ATCC 35547 assessed as effect on planktonic growth at 0.34 ug/ml after 20 hrs relative to control; assay type: functional
[26] = test system: Staphylococcus epidermidis; assay: Antibacterial activity against Staphylococcus epidermidis ATCC 35547 assessed as effect on planktonic growth at 0.68 ug/ml after 20 hrs relative to control; assay type: functional
[27] = test system: Staphylococcus epidermidis; assay: Antibacterial activity against Staphylococcus epidermidis ATCC 35547 assessed as effect on planktonic growth at 1.37 ug/ml after 20 hrs relative to control; assay type: functional
[28] = test system: Staphylococcus epidermidis; assay: Antibacterial activity against Staphylococcus epidermidis ATCC 35547 assessed as effect on planktonic growth at 2.73 ug/ml after 20 hrs relative to control; assay type: functional
[29] = test system: Staphylococcus epidermidis; assay: Antibacterial activity against Staphylococcus epidermidis ATCC 35547 assessed as effect on planktonic growth at 5.5 ug/ml after 20 hrs relative to control; assay type: functional
[30] = test system: Staphylococcus epidermidis; assay: Antibacterial activity against Staphylococcus epidermidis ATCC 35547 assessed as effect on planktonic growth at 10.9 ug/ml after 20 hrs relative to control; assay type: functional
[31] = test system: Staphylococcus epidermidis; assay: Antibacterial activity against Staphylococcus epidermidis ATCC 35547 assessed as effect on planktonic growth at 21.9 ug/ml after 20 hrs relative to control; assay type: functional
[32] = test system: Staphylococcus epidermidis; assay: Antibacterial activity against Staphylococcus epidermidis ATCC 35547 assessed as effect on planktonic growth at 43.8 ug/ml after 20 hrs relative to control; assay type: functional
[33] = test system: Staphylococcus epidermidis; assay: Antibacterial activity against Staphylococcus epidermidis ATCC 35547 assessed as effect on planktonic growth at 87.5 ug/ml after 20 hrs relative to control; assay type: functional
[34] = test system: Pseudomonas aeruginosa; assay: Antibacterial activity against Pseudomonas aeruginosa ATCC 27853 assessed as inhibition of biofilm formation after 20 hrs by crystal-violet staining method; assay type: functional, organism-based
[35] = test system: Staphylococcus epidermidis; assay: Antibacterial activity against Staphylococcus epidermidis ATCC 35547 assessed as inhibition of biofilm formation after 20 hrs by crystal-violet staining method; assay type: functional, organism-based
[36] = test system: Streptococcus mutans; assay: Antibacterial activity against Streptococcus mutans ATCC 25175 assessed as effect on planktonic growth at 0.17 ug/ml after 20 hrs relative to control; assay type: functional
[37] = test system: Streptococcus mutans; assay: Antibacterial activity against Streptococcus mutans ATCC 25175 assessed as effect on planktonic growth at 0.34 ug/ml after 20 hrs relative to control; assay type: functional
[38] = test system: Streptococcus mutans; assay: Antibacterial activity against Streptococcus mutans ATCC 25175 assessed as effect on planktonic growth at 0.68 ug/ml after 20 hrs relative to control; assay type: functional
[39] = test system: Streptococcus mutans; assay: Antibacterial activity against Streptococcus mutans ATCC 25175 assessed as effect on planktonic growth at 1.37 ug/ml after 20 hrs relative to control; assay type: functional
[40] = test system: Streptococcus mutans; assay: Antibacterial activity against Streptococcus mutans ATCC 25175 assessed as effect on planktonic growth at 2.73 ug/ml after 20 hrs relative to control; assay type: functional
[41] = test system: Streptococcus mutans; assay: Antibacterial activity against Streptococcus mutans ATCC 25175 assessed as effect on planktonic growth at 5.5 ug/ml after 20 hrs relative to control; assay type: functional
[42] = test system: Streptococcus mutans; assay: Antibacterial activity against Streptococcus mutans ATCC 25175 assessed as effect on planktonic growth at 10.9 ug/ml after 20 hrs relative to control; assay type: functional

- IC50 ([34]; ATCC 27853, 20 h): 2.5 µg/mL (≈ 4.39 µM)
- IC50 ([35]; ATCC 35547, 20 h): > 87.5 µg/mL
SMILES: COc1ccc(Br)cc1C1=C(Br)C(=O)N(CC(C)C)/C1=C/c1ccc(Br)cc1
- Activity [1]: 6%
- Activity [2]: 9%
- Activity [3]: 22.8%
- Activity [4]: 2.2%
- Activity [5]: 6.3%
- Activity [6]: 18.5%
- Activity [7]: 9.4%
- Activity [8]: 14.9%
- Activity [9]: 15.4%
- Activity [10]: 16.8%
- Activity [11]: 27.8%
- Activity [12]: 36.6%
- Activity [13]: 68.6%
- Activity [14]: 0.9%
- Activity [15]: 2.6%
- Activity [16]: -5.5%
- Activity [17]: -19.3%
- Activity [18]: -17.1%
- Activity [19]: -16.1%
- Activity [20]: -15.5%
- Activity [21]: -11.7%
- Activity [22]: -6.2%
- Activity [23]: -8.2%
- Activity [24]: -3.3%
- Activity [25]: 0.4%
- Activity [26]: -2.1%
- Activity [27]: -1.2%
- Activity [28]: -5.7%
- Activity [29]: 2.7%
- Activity [30]: 1%
- Activity [31]: -1%
- Activity [32]: 7.7%
- Activity [33]: 11.4%
- inhibition [34]: Dose-dependent effect
- inhibition [35]: Dose-dependent effect
- Activity [36]: 13.9%
- Activity [37]: 12%
- Activity [38]: 14.4%
- Activity [39]: -3.3%
- Activity [40]: 12%
- Activity [41]: 10.1%
- Activity [42]: 7.6%
